Experimental data from PubChem BioAssay (NCI).
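Five compound concentrations were applied to cells in 96-well plates for 48 hours; endpoints were derived by simple linear interpolation of the resulting dose-response curve. At the GI50, growth is halved. Definition used: TGI = concentration required for complete inhibition of growth.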

What was measured:
Test in all cases: inhibition of tumour cell growth, NCI panel, 48 h
[1] = tested on: 786-0 renal
[2] = tested on: A498 renal
[3] = tested on: A549 NSCLC
[4] = tested on: ACHN renal
[5] = tested on: BT-549 breast
[6] = tested on: CAKI-1 renal
[7] = tested on: CCRF-CEM leukemia
[8] = tested on: COLO 205 colon
[9] = tested on: DU-145 prostate
[10] = tested on: EKVX NSCLC
[11] = tested on: HCC-2998 colon
[12] = tested on: HCT-116 colon
[13] = tested on: HCT-15 colon
[14] = tested on: HL-60(TB) leukemia
[15] = tested on: HOP-62 NSCLC
[16] = tested on: HOP-92 NSCLC
[17] = tested on: HS 578T breast
[18] = tested on: HT29 colon
[19] = tested on: IGROV1 ovarian
[20] = tested on: K-562 leukemia
[21] = tested on: KM12 colon
[22] = tested on: LOX IMVI melanoma
[23] = tested on: M14 melanoma
[24] = tested on: MALME-3M melanoma
[25] = tested on: MCF7 breast
[26] = tested on: MDA-MB-231 breast
[27] = tested on: MDA-MB-435
[28] = tested on: MDA-MB-468 breast
[29] = tested on: MOLT-4 leukemia
[30] = tested on: NCI-H226 lung
[31] = tested on: NCI-H23 lung
[32] = tested on: NCI-H460 lung
[33] = tested on: NCI-H522 lung
[34] = tested on: OVCAR-3 ovarian
[35] = tested on: OVCAR-4 ovarian
[36] = tested on: OVCAR-5 ovarian
[37] = tested on: OVCAR-8 ovarian
[38] = tested on: PC-3 prostate
[39] = tested on: RPMI-8226 leukemia
[40] = tested on: RXF 393 renal
[41] = tested on: SF-268 CNS
[42] = tested on: SF-295 CNS
[43] = tested on: SF-539 CNS
[44] = tested on: SK-MEL-2 melanoma
[45] = tested on: SK-MEL-28 melanoma
[46] = tested on: SK-MEL-5 melanoma
[47] = tested on: SK-OV-3 ovarian
[48] = tested on: SN12C renal
[49] = tested on: SNB-19 CNS
[50] = tested on: SNB-75 CNS
[51] = tested on: SR leukemia
[52] = tested on: SW-620 colon
[53] = tested on: T-47D breast
[54] = tested on: TK-10 renal
[55] = tested on: U251 CNS
[56] = tested on: UACC-257 melanoma
[57] = tested on: UACC-62 melanoma
[58] = tested on: UO-31 renal
[59] = tested on: NCI/ADR-RES ovarian

C=C1CC[C@@H]2[C@]3(C)COC(c4cn[nH]c4-c4ccc(C)cc4)O[C@@H]3CC[C@@]2(C)[C@@H]1C/C=C1/C(=O)OCC1O (some centres undefined)
GI50 [1]: 16.7 µM | TGI [1]: 33.2 µM | GI50 [2]: 21 µM | TGI [2]: 37.2 µM | GI50 [3]: 26.4 µM | TGI [3]: > 100 µM | GI50 [4]: 15.7 µM | TGI [4]: 36.3 µM | GI50 [5]: 11.1 µM | TGI [5]: 37.8 µM | GI50 [6]: 12.5 µM | TGI [6]: > 100 µM | GI50 [7]: 2.85 µM | TGI [7]: > 100 µM | GI50 [8]: 15.5 µM | TGI [8]: 29.9 µM | GI50 [9]: 24.6 µM | TGI [9]: > 100 µM | GI50 [10]: 18.2 µM | TGI [10]: 43.8 µM | GI50 [11]: 16.7 µM | TGI [11]: 30.4 µM | GI50 [12]: 5.33 µM | TGI [12]: 20.6 µM | GI50 [13]: 10.1 µM | TGI [13]: 25.5 µM | GI50 [14]: 3.38 µM | TGI [14]: 56.4 µM | GI50 [15]: 21.7 µM | TGI [15]: 75.2 µM | GI50 [16]: 17.8 µM | TGI [16]: 42.5 µM | GI50 [17]: 63.9 µM | TGI [17]: > 100 µM | GI50 [18]: 13.1 µM | TGI [18]: 45.8 µM | GI50 [19]: 17.5 µM | TGI [19]: 39.7 µM | GI50 [20]: 5.55 µM | TGI [20]: > 100 µM | GI50 [21]: 13.7 µM | TGI [21]: 35.8 µM | GI50 [22]: 3.76 µM | TGI [22]: 15.7 µM | GI50 [23]: 12.6 µM | TGI [23]: 26.2 µM | GI50 [24]: 15.8 µM | TGI [24]: 33.5 µM | GI50 [25]: 4.88 µM | TGI [25]: 19.4 µM | GI50 [26]: 19.2 µM | TGI [26]: 43.5 µM | GI50 [27]: 7.38 µM | TGI [27]: 73.9 µM | GI50 [28]: 6.94 µM | TGI [28]: 22.1 µM | GI50 [29]: 5.14 µM | TGI [29]: > 100 µM | GI50 [30]: 17.8 µM | TGI [30]: 44.7 µM | GI50 [31]: 14 µM | TGI [31]: 27 µM | GI50 [32]: 20 µM | TGI [32]: 46.9 µM | GI50 [33]: 7.01 µM | TGI [33]: 22.5 µM | GI50 [34]: 3.39 µM | TGI [34]: 13.8 µM | GI50 [35]: 64.8 µM | TGI [35]: > 100 µM | GI50 [36]: 15.5 µM | TGI [36]: 32.6 µM | GI50 [37]: 9.29 µM | TGI [37]: > 100 µM | GI50 [38]: 21.7 µM | TGI [38]: > 100 µM | GI50 [39]: 4.73 µM | TGI [39]: > 100 µM | GI50 [40]: 12.5 µM | TGI [40]: 25 µM | GI50 [41]: 34.7 µM | TGI [41]: > 100 µM | GI50 [42]: 18.2 µM | TGI [42]: 36.5 µM | GI50 [43]: 12.7 µM | TGI [43]: 25.3 µM | GI50 [44]: 13.9 µM | TGI [44]: 30.4 µM | GI50 [45]: 12.8 µM | TGI [45]: 27 µM | GI50 [46]: 12.6 µM | TGI [46]: 25.3 µM | GI50 [47]: 26.5 µM | TGI [47]: 74.8 µM | GI50 [48]: 17.3 µM | TGI [48]: 42.8 µM | GI50 [49]: 14.5 µM | TGI [49]: 27.6 µM | GI50 [50]: 20.6 µM | TGI [50]: > 100 µM | GI50 [51]: 7.16 µM | TGI [51]: > 100 µM | GI50 [52]: 4.6 µM | TGI [52]: 17.5 µM | GI50 [53]: 13.9 µM | TGI [53]: > 100 µM | GI50 [54]: 22.5 µM | TGI [54]: 48.3 µM | GI50 [55]: 11.9 µM | TGI [55]: 28.6 µM | GI50 [56]: 15.2 µM | TGI [56]: 44.4 µM | GI50 [57]: 13.3 µM | TGI [57]: 27 µM | GI50 [58]: 12.5 µM | TGI [58]: 25.7 µM

CC1=C2C(=C[C@@](C)(COCOCCCl)[C@@H]2O)C(=O)[C@](C)(O)C12CC2
GI50 [1]: 0.638 µM | TGI [1]: 1.98 µM | GI50 [2]: 1.61 µM | TGI [2]: 4.99 µM | GI50 [3]: 0.322 µM | TGI [3]: 6.86 µM | GI50 [4]: 0.0554 µM | TGI [4]: 0.387 µM | GI50 [5]: 0.243 µM | TGI [5]: 0.786 µM | GI50 [6]: 0.263 µM | TGI [6]: 2.1 µM | GI50 [7]: 0.626 µM | TGI [7]: > 33.8 µM | GI50 [8]: 0.258 µM | TGI [8]: 0.924 µM | GI50 [9]: 0.142 µM | TGI [9]: 1.51 µM | GI50 [10]: 0.285 µM | TGI [10]: 0.87 µM | GI50 [11]: 0.199 µM | TGI [11]: 0.495 µM | GI50 [12]: 0.128 µM | TGI [12]: > 41.5 µM | GI50 [13]: 0.0644 µM | TGI [13]: 2.55 µM | GI50 [14]: 0.126 µM | TGI [14]: 2.13 µM | GI50 [15]: 0.344 µM | TGI [15]: 1.88 µM | GI50 [16]: 0.248 µM | TGI [16]: 0.685 µM | GI50 [17]: 0.598 µM | TGI [17]: 4 µM | GI50 [18]: 0.174 µM | GI50 [19]: 0.229 µM | TGI [19]: 0.961 µM | GI50 [20]: 0.445 µM | TGI [20]: > 100 µM | GI50 [21]: 0.35 µM | TGI [21]: 4.83 µM | GI50 [22]: 0.137 µM | TGI [22]: 0.493 µM | GI50 [23]: 0.285 µM | TGI [23]: 0.99 µM | GI50 [24]: 0.229 µM | TGI [24]: 0.509 µM | GI50 [25]: 0.045 µM | TGI [25]: 3.18 µM | GI50 [26]: 0.294 µM | TGI [26]: 1.03 µM | GI50 [27]: 0.322 µM | TGI [27]: 1.09 µM | GI50 [28]: 0.123 µM | TGI [28]: 0.299 µM | GI50 [29]: 0.141 µM | TGI [29]: > 48.3 µM | GI50 [30]: 0.845 µM | TGI [30]: 4.01 µM | GI50 [31]: 0.105 µM | TGI [31]: 0.304 µM | GI50 [32]: 0.113 µM | TGI [32]: 0.656 µM | GI50 [33]: 0.184 µM | TGI [33]: 0.495 µM | GI50 [59]: 0.16 µM | TGI [59]: 0.438 µM | GI50 [34]: 0.265 µM | TGI [34]: 0.765 µM | GI50 [35]: 0.265 µM | TGI [35]: 0.86 µM | GI50 [36]: 0.178 µM | TGI [36]: 1.07 µM | GI50 [37]: 0.211 µM | TGI [37]: 0.79 µM | GI50 [38]: 0.23 µM | GI50 [39]: 3.75 µM | TGI [39]: > 58.3 µM | GI50 [40]: 0.154 µM | TGI [40]: 0.351 µM | GI50 [41]: 0.305 µM | TGI [41]: 1.7 µM | GI50 [42]: 0.234 µM | TGI [42]: 7.76 µM | GI50 [43]: 0.202 µM | TGI [43]: 0.447 µM | GI50 [44]: 0.184 µM | TGI [44]: 0.35 µM | GI50 [45]: 0.389 µM | TGI [45]: 1.31 µM | GI50 [46]: 0.209 µM | TGI [46]: 0.499 µM | GI50 [47]: 0.415 µM | TGI [47]: 2.17 µM | GI50 [48]: 0.299 µM | TGI [48]: 1.2 µM | GI50 [49]: 0.346 µM | TGI [49]: 2.46 µM | GI50 [50]: 0.241 µM | TGI [50]: 1.25 µM | GI50 [51]: 0.0647 µM | TGI [51]: > 100 µM | GI50 [53]: 0.506 µM | TGI [53]: 5.69 µM | GI50 [54]: 0.429 µM | GI50 [55]: 0.113 µM | TGI [55]: 19.9 µM | GI50 [56]: 0.647 µM | TGI [56]: 3.97 µM | GI50 [57]: 0.198 µM | TGI [57]: 0.429 µM | GI50 [58]: 0.186 µM | TGI [58]: 0.549 µM
